In patent US20060173028A1, “Therapeutic and/or preventive agent for chronic skin disease” (Kyowa Hakko Kogyo Co., Ltd., priority 2003, published 2006):
Marks after values point to notes of the source that are not given here.

Key:
[1] = test system: oxazolone-induced ear swelling; test: Inhibitory effects on oxazolone-induced ear swelling in mice; type: in vivo, BALB/c mice; conditions: dose 100 μg/site, epicutaneous
Procedure: Six-week-old BALB/c mice (male, Charles River Japan, Inc.) were used for the experiment. […] The mice were placed in plastic cages (6 mice per cage) in a breeding room which was kept at a room temperature (19 to 25° C.) and a humidity of 30 to 70% and was illuminated for 12 hours a day (from 7:00 a.m. to 7:00 p.m.). The mice were allowed to freely access commercially available pellets and water. As an antigen solution, Oxazolone (Sigma-Aldrich) was dissolved in acetone (Kanto Kagaku) to prepare 0.5 weight/volume % of oxazolone-acetone solution. Compound (I) was dissolved in the antigen solution at 5 weight/volume % to prepare a Compound (I)-dissolving antigen solution. BALB/c mice were each applied with 100 μL of the antigen solution to the shaved abdomen for sensitization. Mice were shaved on abdomen on the previous day of the sensitization. […] Ear thickness was measured with a dial thickness gauge (Ozaki Seisakusho) just before and 24 hours after the application for inducing .the reaction, and the difference in the thickness was used as an indication of ear swelling. The inhibition ratio (%) against ear swelling was calculated using the following: Inhibition ratio (%)=[{(value in solvent administration group)−(value in Compound (I) administration group)}/{(value in solvent administration group)−(value in non-administration group)}]×100

[2] = test system: dermatitis induced by repeated application of oxazolone; test: Inhibitory effects on the increase of ear thickness in a mouse model of dermatitis induced by repeated application of oxazolone; type: in vivo, BALB/c mice; conditions: 28th day, dose 50 μg/site/time
Procedure: Six-week-old BALB/c mice (male, Charles River Japan, Inc.) were used for the experiment. […] The mice were placed in plastic cages (6 mice per cage) in a breeding room which was kept at a room temperature (19 to 25° C.) and a humidity of 30 to 70% and was illuminated for 12 hours a day (from 7:00 a.m. to 7:00 p.m.). The mice were allowed to freely access commercially available pellets and water.
The experiment was performed according to a method by Kitagaki et al. (J. Invest. Dermatol., […], 105: 749) with small modification.
As an antigen solution, Oxazolone (Sigma-Aldrich) was dissolved in acetone (Kanto Kagaku) to prepare 0.5 weight/volume % of oxazolone-acetone solution. Compound (I) was dissolved in the antigen solution at 5 weight/volume % to prepare a Compound (I)-dissolving antigen solution. BALB/c mice were each applied with 10 μL of the antigen solution to the ear for sensitization. […] On the 28th day when chronic dermatitis symptoms were observed, ear thickness was measured with a dial thickness gauge (Ozaki Seisakusho). The inhibition ratio (%) against the increase of ear thickness was calculated using the following: Inhibition ratio (%)=[{(value in solvent administration group)−(value in Compound (I) administration group)}/{(value in solvent administration group)−(value in non-administration group)}]×100

[3] = test system: delayed-type allergic reaction in the skin; conditions: animal model; Eur. J. Pharmacol., 2002, 446: 195; cited from earlier work
[4] = test system: chronic dermatitis models; conditions: J. Pharmacol. Exp. Ther., 1998, 287, p. 705; cited from earlier work

Structure (SMILES)	Auricular Edema ([1]; difference in ear thickness just before and 24 hours after induction, male BALB/c mice)	Inhibition Ratio against ear swelling ([1]; 24 hours after induction, relative to solvent and non-administration groups)	Auricle thickness ([2]; repeated application to the ear day 7 to 28, male BALB/c mice)	Inhibition Ratio against the increase of ear thickness ([2]; repeated application, relative to solvent and non-administration groups)	Effect on delayed-type allergic reaction in the skin [3]	Therapeutic effects on chronic dermatitis models [4]
COc1ccc(C(=O)Cc2c(Cl)cncc2Cl)c2c1OC1(CCCC1)O2 [Compound (I), 7-[2-(3,5-dichloro-4-pyridyl)-1-oxoethyl]-4-methoxy-spiro[1,3-benzodioxol-2,1′-cyclopentane]]	16** ×0.01 mm	64%	67** ×0.01 mm	41%		
COc1ccc([C@]2(C#N)CC[C@@H](C(=O)O)CC2)cc1OC1CCCC1 [SB207499]					inhibit a delayed-type allergic reaction in the skin	exhibit therapeutic effects on chronic dermatitis models
